Data as given in patent US8513272B2, “Forms of a fused pyrrolocarbazole compound” (Cephalon, Inc., priority 2008, dated 2013).
≈ marks a conversion by molar mass, not a printed value.

Assay: Solubility of various forms of Compound I in water and pH 1, pH 2 (HCl/KCl) buffers at 25° C., HPLC analysis
Type: physicochemical
Details: stirring 300 rpm, saturated solution; for Solubility, pH 1 Buffer: pH 1 HCl/KCl buffer; for Solubility, pH 2 Buffer: pH 2 HCl/KCl buffer
Method: Solubility of Various Forms of Compound I in Water and pH1, pH2 Buffers
Solubility was measured by adding 25 mg of the various forms of Compound I or an amount adequate to maintain a saturated solution in water and pH 1, pH 2 (HCl/KCl buffers). Temperature of 25° C. and a stirring rate of 300 rpm were maintained by using a HEL Crystal Scan unit (HEL, UK). Samples were withdrawn at the times indicated, filtered and analyzed by HPLC for Compound I using the method described below.
HPLC Method for Measurement of CEP11981 Content of Solubility Samples
Testing was performed on a calibrated ThermoFinnigan High Performance Liquid Chromatography (HPLC) system designated LC-0410-AD. The system comprises a P4000 pump, AS3000 autosampler, and UV2000 detector. A TCM 2000 temperature control module was used to heat the column. All standard solutions and samples were prepared in Class A glass volumetric flasks and were placed in autosampler vials. Standard weightings were done using a calibrated Mettler analytical balance. The sample preparations were centrifuged using an Eppendorf microcentrifuge. The primary chromatography data was acquired and integrated using ChromQuest software. Microsoft Office Excel 2003 was used for the calculation of results.
Column: MS C18, 150×4.6 mm ID, 3.5μ Waters, m Xterra packing
Column Temperature: 30° C.
Detector: UV/VIS @ 270 nm
Mobile Phase A: 10 mM Ammonium Acetate (aqueous)
Mobile Phase B: 10 mM Ammonium Acetate in sample solvent

Row | Solubility, pH 1 Buffer | Solubility, pH 2 Buffer | Solubility, Water | SMILES
1 | 20000 mcg/mL | 0.04 mcg/mL | <1 µg/mL | CC(C)Cn1c2ccc(Nc3ncccn3)cc2c2c3c(c4c(c21)CCc1nn(C)cc1-4)C(=O)NC3 [AS, 11-isobutyl-2-methyl-8-(2-pyrimidinylamino)-2,5,6,11,12,13-hexahydro-4H-indazolo[5,4-a]pyrrolo[3,4-c]carbazol-4-one]
2 | 23 mcg/mL | 0.3 mcg/mL | <1 µg/mL | CC(C)Cn1c2ccc(Nc3ncccn3)cc2c2c3c(c4c(c21)CCc1nn(C)cc1-4)C(=O)NC3 [pTSA-A1, 11-isobutyl-2-methyl-8-(2-pyrimidinylamino)-2,5,6,11,12,13-hexahydro-4H-indazolo[5,4-a]pyrrolo[3,4-c]carbazol-4-one]
3 | 11 mcg/mL | 5 mcg/mL | 20 µg/mL (≈ 41.9 µM) | CC(C)Cn1c2ccc(Nc3ncccn3)cc2c2c3c(c4c(c21)CCc1nn(C)cc1-4)C(=O)NC3 [pTSA-A2, 11-isobutyl-2-methyl-8-(2-pyrimidinylamino)-2,5,6,11,12,13-hexahydro-4H-indazolo[5,4-a]pyrrolo[3,4-c]carbazol-4-one]
